Assays:
[1] = tested on: Hirsutella rhossiliensis; test: Effect of nitrogen source on growth, sporulation and spore germination; conditions: for Growth mm-in-diam, on agar: nitrogen source 0.3296 g/L nitrogen; for Growth mm-in-diam, on agar / growth in liquit culture (visual rating) / Sporulation 10^3/cm^2, on agar: 5 weeks; for Spore germination %, on agar / growth in liquit culture (visual rating) / Sporulation 10^3/cm^2, on agar: nitrogen source
[2] = tested on: Hirsutella rhossiliensis; test: Effect of carbon source on growth, sporulation and spore germination; conditions: for Growth mm-in-diam, on agar: carbon source 4 g/liter carbon; for Growth mm-in-diam, on agar / Sporulation 10^3/cm^2, on agar / growth in liquid culture (visual rating): 5 weeks; for Sporulation 10^3/cm^2, on agar / growth in liquid culture (visual rating) / Spore germination %, on agar: carbon source; for Spore germination %, on agar: after incubation for 24 hr

Molecule	Growth mm-in-diam, on agar ([1]; isolate ATCC46487) [mm-in-diam]	Growth mm-in-diam, on agar ([1]; isolate JA16-1) [mm-in-diam]	Growth mm-in-diam, on agar ([1]; isolate OWVT-1)	Spore germination %, on agar ([1]; isolate ATCC46487) [%]	Spore germination %, on agar ([1]; isolate JA16-1) [%]	growth in liquit culture (visual rating) ([1]; isolate JA16-1)	Spore germination %, on agar ([1]; isolate OWVT-1) [%]	growth in liquit culture (visual rating) ([1]; isolate OWVT-1)	further results
NCC(=O)O [Glycine]	41.5	7.5	10.7 mm-in-diam	75.6	93.3	III (III = hyphae growth or colonies form a pellet, less than 2.5 ml)	60.0	III (III = hyphae growth or colonies form a pellet, less than 2.5 ml)	
N[C@@H](Cc1ccc(O)cc1)C(=O)O [L-tyrosine]				91.1	86.7		67.8		
NC(CO)C(=O)O (racemic) [DL-Serine]	45.3	10.2	17.2 mm-in-diam	84.4	87.8	III (III = hyphae growth or colonies form a pellet, less than 2.5 ml)	72.2	IV (IV = the pellet diameter larger than 1 cm, but the total volume distribution less than 5 ml)	
N[C@@H](CSSC[C@H](N)C(=O)O)C(=O)O [L-cystine]	0.0	0.0	0.0^ mm-in-diam	14.4	4.4	0	5.6		
NC(N)=O [Urea]	43.5	14.0	16.7 mm-in-diam	91.1	85.6		64.4		growth in liquit culture (visual rating) ([1]; isolate ATCC46487): IV (IV = the pellet diameter larger than 1 cm, but the total volume distribution less than 5 ml)
CSCCC(N)C(=O)O (racemic) [DL-Methionine]	11.7	0.0	0.0^ mm-in-diam	74.4	70.0	I	63.3	I	Sporulation 10^3/cm^2, on agar ([1]; isolate ATCC46487): 3.2 10^3/cm^2; growth in liquit culture (visual rating) ([1]; isolate ATCC46487): III (III = hyphae growth or colonies form a pellet, less than 2.5 ml); Sporulation 10^3/cm^2, on agar ([1]; isolate JA16-1): 10.8 10^3/cm^2; Sporulation 10^3/cm^2, on agar ([1]; isolate OWVT-1): 0.0 10^3/cm^2
Casein			23.0 mm-in-diam	96.7	90.0		44.4		Sporulation 10^3/cm^2, on agar ([1]; isolate OWVT-1): 43.6 10^3/cm^2
NC(CCC(=O)O)C(=O)O (racemic) [DL-Glutamic acid]	40.8	12.8	18.7 mm-in-diam	74.4	90.0		48.9	III (III = hyphae growth or colonies form a pellet, less than 2.5 ml)	
NC(=O)C[C@H](N)C(=O)O [L-Asparagine]	51.8	16.5	20.8 mm-in-diam	93.3	85.5	IV (IV = the pellet diameter larger than 1 cm, but the total volume distribution less than 5 ml)	70.0	III (III = hyphae growth or colonies form a pellet, less than 2.5 ml)	
O=C(O)[C@@H]1CCCN1 [L-proline]	47.2	17.0	23.8 mm-in-diam	86.7	86.7		60.0	III (III = hyphae growth or colonies form a pellet, less than 2.5 ml)	
N[C@@H](Cc1ccccc1)C(=O)O [L-Phenylalanine]	34.3	11.7	17.5 mm-in-diam	77.8	86.7		68.3	IV (IV = the pellet diameter larger than 1 cm, but the total volume distribution less than 5 ml)	Sporulation 10^3/cm^2, on agar ([1]; isolate ATCC46487): 7.9 10^3/cm^2; Sporulation 10^3/cm^2, on agar ([1]; isolate JA16-1): 79.0 10^3/cm^2; Sporulation 10^3/cm^2, on agar ([1]; isolate OWVT-1): 15.9 10^3/cm^2
N[C@@H](CC(=O)O)C(=O)O [L-Aspartic acid]	43.8	13.3	16.8 mm-in-diam	93.3	90.0	IV (IV = the pellet diameter larger than 1 cm, but the total volume distribution less than 5 ml)	53.3	III (III = hyphae growth or colonies form a pellet, less than 2.5 ml)	
O.OC[C@H]1O[C@@H](O[C@H]2[C@H](O)[C@@H](O)[C@@H](O)O[C@@H]2CO)[C@H](O)[C@@H](O)[C@H]1O [a-lactose monohydrate]									Growth mm-in-diam, on agar ([2]; isolate ATCC46487): 35.8 mm-in-diam; Growth mm-in-diam, on agar ([2]; isolate JA16-1): 15.8 mm-in-diam; Growth mm-in-diam, on agar ([2]; isolate OWVT-1): 9.8 mm-in-diam; Sporulation 10^3/cm^2, on agar ([2]; isolate ATCC46487): 2.4 10^3/cm^2; growth in liquid culture (visual rating) ([2]; isolate ATCC46487): I; Spore germination %, on agar ([2]; isolate ATCC46487): 56.7%; Sporulation 10^3/cm^2, on agar ([2]; isolate JA16-1): 37.3 10^3/cm^2; growth in liquid culture (visual rating) ([2]; isolate JA16-1): I; Spore germination %, on agar ([2]; isolate JA16-1): 68.9%; Sporulation 10^3/cm^2, on agar ([2]; isolate OWVT-1): 17.4 10^3/cm^2; growth in liquid culture (visual rating) ([2]; isolate OWVT-1): I; Spore germination %, on agar ([2]; isolate OWVT-1): 42.2%
O=C(O)CC(O)(CC(=O)O)C(=O)O [Citric acid]									Growth mm-in-diam, on agar ([2]; isolate ATCC46487): 11.3 mm-in-diam; Growth mm-in-diam, on agar ([2]; isolate JA16-1): 0.0 mm-in-diam; Growth mm-in-diam, on agar ([2]; isolate OWVT-1): 9.0 mm-in-diam; Sporulation 10^3/cm^2, on agar ([2]; isolate ATCC46487): 39.5 10^3/cm^2; Spore germination %, on agar ([2]; isolate ATCC46487): 50.0%; Sporulation 10^3/cm^2, on agar ([2]; isolate JA16-1): 7.4 10^3/cm^2; Spore germination %, on agar ([2]; isolate JA16-1): 38.9%; Sporulation 10^3/cm^2, on agar ([2]; isolate OWVT-1): 87.5 10^3/cm^2; Spore germination %, on agar ([2]; isolate OWVT-1): 52.2%
OC[C@H]1O[C@H](O[C@H]2[C@H](O)[C@@H](O)[C@H](O)O[C@@H]2CO)[C@H](O)[C@@H](O)[C@@H]1O [Maltose monohydrate]									Growth mm-in-diam, on agar ([2]; isolate ATCC46487): 34.3 mm-in-diam; Growth mm-in-diam, on agar ([2]; isolate JA16-1): 11.0 mm-in-diam; Growth mm-in-diam, on agar ([2]; isolate OWVT-1): 13.7 mm-in-diam; Sporulation 10^3/cm^2, on agar ([2]; isolate ATCC46487): 21.9 10^3/cm^2; growth in liquid culture (visual rating) ([2]; isolate ATCC46487): I; Spore germination %, on agar ([2]; isolate ATCC46487): 36.7%; Sporulation 10^3/cm^2, on agar ([2]; isolate JA16-1): 26.6 10^3/cm^2; growth in liquid culture (visual rating) ([2]; isolate JA16-1): I; Spore germination %, on agar ([2]; isolate JA16-1): 64.5%; Sporulation 10^3/cm^2, on agar ([2]; isolate OWVT-1): 34.2 10^3/cm^2; growth in liquid culture (visual rating) ([2]; isolate OWVT-1): I; Spore germination %, on agar ([2]; isolate OWVT-1): 46.7%
OC[C@H]1O[C@H](OCC2O[C@@H](O)[C@H](O)[C@@H](O)[C@@H]2O)[C@H](O)[C@@H](O)[C@H]1O (some centres unmarked) [Melibiose]									Growth mm-in-diam, on agar ([2]; isolate ATCC46487): 35.0 mm-in-diam; Growth mm-in-diam, on agar ([2]; isolate JA16-1): 11.8 mm-in-diam; Growth mm-in-diam, on agar ([2]; isolate OWVT-1): 18.2 mm-in-diam; Sporulation 10^3/cm^2, on agar ([2]; isolate ATCC46487): 41.9 10^3/cm^2; growth in liquid culture (visual rating) ([2]; isolate ATCC46487): III (III = hyphae growth or colonies form a pellet, less than 2.5 ml); Spore germination %, on agar ([2]; isolate ATCC46487): 40.0%; Sporulation 10^3/cm^2, on agar ([2]; isolate JA16-1): 13.1 10^3/cm^2; growth in liquid culture (visual rating) ([2]; isolate JA16-1): I; Spore germination %, on agar ([2]; isolate JA16-1): 61.7%; Sporulation 10^3/cm^2, on agar ([2]; isolate OWVT-1): 33.7 10^3/cm^2; Spore germination %, on agar ([2]; isolate OWVT-1): 48.9%
